Measurements published in patent US10570117B2, “Phenylimidazole compound” (Otsuka Pharmaceutical Factory, Inc., priority 2015, dated 2020).
In brackets after ≈: the same amount, converted by molar mass. Read-outs that look alike come from different tables or passages of the source.

Assays:
[1] = system: lipoprotein lipase (LPL) gene; test: LPL mRNA elevating action (RT-PCR quantification of LPL mRNA in C2Cl2 cells); format: cell-based, mouse; details: Mus musculus, 24 h, compound 10 μM, ratio relative to the amount of LPL mRNA in cells with DMSO only, read-out: Rate of increase in LPL mRNA
How it was run: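 Read-out is LPL mRNA relative to vehicle (DMSO = 1), measured by reverse transcription and 20-cycle real-time PCR. Cells were the mouse striated-muscle line C2Cl2, treated 24 h with 10 μM compound in DMEM containing 10% FBS.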

[2] = Solubility in gastric juice or intestinal juice model fluid (precipitation method using DMSO); format: physicochemical; details: room temperature
How it was run: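 Dissolved amount (μg/mL) quantified by UV of filtrate versus pre-made calibration curves. Precipitation approach: DMSO solutions spiked into pH 1.2 (JP 1st fluid) or pH 6.8 (JP 2nd fluid) medium, shaken at room temperature for 24 h before insolubles were filtered off.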

[3] = pH 1.2, simulated gastric fluid, kinetic from dmso stock, 1st fluid for Disintegration Test of Japanese Pharmacopoeia (pH: 1.2), read-out: Solubility (μg/mL) 1st fluid
[4] = pH 6.8, kinetic from dmso stock, 2nd fluid for Disintegration Test of Japanese Pharmacopoeia (pH: 6.8), read-out: Solubility (μg/mL) 2nd fluid

Structure (SMILES) | solubility at 24 h [2, 3] [µg/mL] | solubility at 24 h [2, 4] [µg/mL] | melting point | fold induction at 10 µM [1]
COc1cc(OCc2ncc(C(F)(F)F)cc2F)ccc1-c1[nH]c(CCC(F)(F)F)nc1Cl [Example 394] | 96.3 (≈ 193 µM) | < 0.4 | 154 to 159 °C | 2.39
COc1cc(-c2[nH]c(CCC(F)(F)F)nc2Cl)ccc1OCc1ncc(C(F)(F)F)cc1F [Example 395] | 3.8 (≈ 7.63 µM) | < 0.4 | 116 to 119 °C | 2.61
COc1cc(-c2[nH]c(-c3ccc(F)nc3)nc2Cl)ccc1OC(C)c1ncc(C(F)(F)F)cc1F (centres unmarked) [Example 396] | 28 (≈ 54.8 µM) | < 0.4 | 113 to 118 °C | 2.93
Oc1cc(OCc2ncc(C(F)(F)F)cc2F)ccc1-c1[nH]c(-c2ccc(F)nc2)nc1Cl [Example 407] | 2.7 (≈ 5.59 µM) | < 0.3 | 229 to 233 °C (dec.) | 1.68
Oc1cc(OCc2ncc(C(F)(F)F)cc2F)ccc1-c1[nH]c(-c2ccc(F)nc2)nc1Br [Example 408] | 1.9 (≈ 3.6 µM) | < 0.4 | 202 to 204 °C | 1.24
COc1cc(OCc2ccc(C(F)(F)F)nc2)ccc1-c1[nH]c(-c2ccc(F)nc2)nc1C#N [Example 409] | 1.3 (≈ 2.77 µM) | 1.9 (≈ 4.05 µM) | 212 to 219 °C | 1.34
COc1cc(OCc2ccc(C(F)(F)F)nc2)ccc1-c1nc(-c2ccc(F)nc2)n(C)c1C#N [Example 410] | 1.1 (≈ 2.28 µM) | < 0.3 | 165 to 167 °C | 0.42
COc1cc(OCc2ncc(C(F)(F)F)cc2F)ccc1-c1[nH]c(-c2ccc(F)nc2)nc1C(F)(F)F [Example 411, 3-fluoro-2-[[4-(2-(6-fluoropyridin-3-yl)-4-(trifluoromethyl)-1H-imidazol-5-yl)-3-methoxyphenoxy]methyl]-5-(trifluoromethyl)pyridine] | 3.1 (≈ 5.84 µM) | 3 (≈ 5.66 µM) | 181 to 182 °C | 1.62
COc1cc(OCc2ccc(C(F)(F)F)nc2)ccc1-c1[nH]c(-c2ccc(F)nc2)nc1C(F)(F)F [Example 412] | 0.6 (≈ 1.17 µM) | 1.5 (≈ 2.93 µM) | 222 to 224 °C | 1.41

Further lines, with some results ahead:

solubility at 24 h [2, 3] [µg/mL] | solubility at 24 h [2, 4] [µg/mL] | melting point | Structure (SMILES) | fold induction at 10 µM [1]
> 85 | 1.9 (≈ 4.45 µM) | 191 to 196 °C | Fc1cc(C(F)(F)F)cnc1COc1ccc(-c2cnc(C3CC(F)(F)C3)[nH]2)cc1 [Example 393] | 1.26
15.9 (≈ 34.4 µM) | < 0.3 | 162 to 167 °C | Fc1cc(C(F)(F)F)cnc1COc1ccc(-c2[nH]c(C3CC(F)(F)C3)nc2Cl)cc1 [Example 397] | 4.58
54.1 (≈ 115 µM) | 3.4 (≈ 7.21 µM) | 172 to 174 °C | COc1cc(OCc2ncc(C(F)(F)F)cc2F)ccc1-c1[nH]c(C2CC(F)(F)C2)nc1C [Example 399] | 4.68
97.1 (≈ 181 µM) | 0.6 (≈ 1.12 µM) | 192 to 195 °C | COc1cc(OCc2ncc(C(F)(F)F)cc2F)ccc1-c1[nH]c(C2CC(F)(F)C2)nc1Br [Example 400] | 4.49
> 90 | 12.4 (≈ 27.7 µM) | 202 to 207 °C | Oc1cc(OCc2ncc(C(F)(F)F)cc2F)ccc1-c1cnc(-c2ccc(F)nc2)[nH]1 [Example 406, 5-[[3-fluoro-5-(trifluoromethyl)pyridin-2-yl]methoxy]-2-[2-(6-fluoropyridin-3-yl)-1H-imidazol-5-yl]phenol] | 2.62
